Tests used:
[1] = tested on: MCF-7 cells; conditions: 24 hours, FIG. 3
Experimental: The MCF-7 cells were treated with aripiprazole (1, 5, 10, 20 μM) alone or in combination with radiation. After 24 hours, after washing with PBS, proteins were extracted from the cells, and the degree of PARP cleavage was confirmed by Western blot.
(§1) After 24 hours, after washing with PBS, proteins were extracted from the cells, and the degree of PARP cleavage was confirmed by Western blot.
as §1

[2] = tested on: MCF-7 cells; conditions: MCF-7, combination with radiation vs single treatments, 24 hours, FIG. 4
Experimental: (§2) After the MCF-7 cells or U251 cells were adjusted to a concentration of 5000 cells/well, they were inoculated into a 96 well plate and pre-cultured for 24 hours. Thereafter, the medium was removed and aripiprazole was treated alone or in combination with radiation. After 24 hours, the degree of DNA fragmentation was confirmed using Roche's Cell Death Detection ELISA plus kit.
(§3) After 24 hours, the degree of DNA fragmentation was confirmed using Roche's Cell Death Detection ELISA plus kit.
as §3

[3] = tested on: U251 cells; assay: DNA fragmentation, Cell Death Detection ELISA plus kit; format: cell-based; conditions: U251, combination with radiation vs single treatments, 24 hours, FIG. 4
Experimental: as §2

[4] = tested on: MCF-7 cells; assay: Cell viability at various aripiprazole concentrations alone or with radiation (EZ-Cytox); format: cell-based, human; conditions: 96 hours, FIG. 2
Experimental: In order to confirm the effect of aripiprazole on radiation sensitivity in cancer cells, a cell viability measurement experiment was performed in breast cancer cells having radiation resistance using the […] as follows. After the MCF-7 cells were adjusted to a concentration of 5000 cells/well, they were inoculated into a 96-well plate and pre-cultured for 24 hours. Thereafter, the medium was removed and aripiprazole ([…]) was treated alone or in combination with radiation. After 96 hours, the survival rate of cells was measured by Dogen's EZ-Cytox Cell Viability Assay kit.

[5] = tested on: MCF-7 cells; assay: Drug library screen for radiation sensitizers, EZ-Cytox cell viability; format: cell-based, human; set-up: dose or concentration left out as unconfirmed; conditions: 96 hours, FIG. 1
Experimental: MCF-7 cells, a human breast cancer cell line, were adjusted to a concentration of 5000 cells/well, then inoculated into a 96 well plate and pre-cultured for 24 hours. Subsequently, the medium was removed, and each drug in Enzo's drug library at a concentration of […] was treated alone or in combination with radiation. After 96 hours, the survival rate of cells was measured by Dogen's EZ-Cytox Cell Viability Assay kit.

## O=C1CCc2ccc(OCCCCN3CCN(c4cccc(Cl)c4Cl)CC3)cc2N1 [aripiprazole, 7-{4-[4-(2,3-dichlorophenyl)-1-piperazinyl]-butoxy}-3,4-dihydro-2(1H)-quinolinone]
[1]; MCF-7, aripiprazole 1, 5, 10, 20 μM with radiation
  induction of apoptosis in radiation-treated cancer cells: induce apoptosis in radiation-treated cancer cells in a concentration-dependent manner
[1]; MCF-7, aripiprazole 1, 5, 10, 20 μM, combination with radiation vs alone
  PARP cleavage induction effect: more excellent when treated in combination with radiation than treated aripiprazole alone
[2]
  DNA fragmentation inducing effect: superior to the effect of adding up each treatment
[3]
  DNA fragmentation inducing effect: superior to the effect of adding up each treatment
[4]; MCF-7, aripiprazole 5, 10, 20 μM with radiation
  radiation sensitizing effect: excellent radiation sensitizing effect in a concentration-dependent manner
[4]; MCF-7, aripiprazole 5, 10, 20 µM, combination with radiation vs alone
  survival rate reduction effect: more excellent when treated in combination with radiation than the treatment with aripiprazole alone
[5]; MCF-7, drug treatment alone
  survival rate of cells: no effect on the survival rate of cells
[5]; MCF-7, in combination with radiation
  survival rate of cells: lowers the survival rate of radiation-resistant cells
